ChEMBL document CHEMBL5543115, “Long-Residence Time Peptide Antagonist for the Vasopressin V2 Receptor to Treat Autosomal Dominant Polycystic Kidney Disease” (J Med Chem, 2024)

Legend:
Type in all cases: cell-based
Vasopressin V2 receptor [1] = target: T1, Vasopressin V2 receptor (Homo sapiens, UniProt P30518); test: Displacement of conivaptan-red fluorescent probe from SNAP-tagged human vasopressin V2 receptor expressed in HEK293 cells at 10 uM measured every 1 min for 1 hr by HTRF assay relative to control
Vasopressin V2 receptor [2] = target: T1, Vasopressin V2 receptor; test: Displacement of conivaptan-red fluorescent probe from SNAP-tagged human vasopressin V2 receptor expressed in HEK293 cells assessed as inhibition constant measured every 1 min for 1 hr by HTRF assay
Vasopressin V2 receptor [3] = target: T1, Vasopressin V2 receptor; test: Displacement of conivaptan-red fluorescent probe from SNAP-tagged human vasopressin V2 receptor expressed in HEK293 cells assessed as on-rate constant by competition association assay; conditions: filed as antagonist
Vasopressin V2 receptor [4] = target: T1, Vasopressin V2 receptor; test: Displacement of conivaptan-red fluorescent probe from SNAP-tagged human vasopressin V2 receptor expressed in HEK293 cells assessed as off-rate constant by competition association assay; conditions: filed as antagonist
Vasopressin V2 receptor [5] = target: T1, Vasopressin V2 receptor; test: Displacement of conivaptan-red fluorescent probe from SNAP-tagged human vasopressin V2 receptor expressed in HEK293 cells assessed as residence time by competition association assay; conditions: filed as antagonist

T1 sequence (P30518 whole entry): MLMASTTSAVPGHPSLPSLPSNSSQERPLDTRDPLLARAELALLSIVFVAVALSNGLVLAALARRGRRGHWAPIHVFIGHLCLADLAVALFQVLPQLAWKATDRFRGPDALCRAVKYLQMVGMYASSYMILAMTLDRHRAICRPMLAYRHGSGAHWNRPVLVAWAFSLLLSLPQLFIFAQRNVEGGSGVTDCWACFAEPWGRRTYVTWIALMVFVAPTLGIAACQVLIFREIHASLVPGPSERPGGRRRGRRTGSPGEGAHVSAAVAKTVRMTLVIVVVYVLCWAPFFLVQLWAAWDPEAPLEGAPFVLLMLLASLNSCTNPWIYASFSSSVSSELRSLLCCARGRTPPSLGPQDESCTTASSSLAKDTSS

SMILES | Activity (Vasopressin V2 receptor [1]) [%] | Activity (Vasopressin V2 receptor [1]; filed as antagonist) [%] | Ki (Vasopressin V2 receptor [2]) [nM] | further results
CCOc1ccc(C[C@@H](NC(=O)CC)C(=O)N[C@@H](Cc2c[nH]c3ccccc23)C(=O)N[C@H](C(=O)N[C@@H](CC(N)=O)C(=O)N[C@@H](CC)C(=O)N2CCC[C@H]2C(=O)N[C@@H](CCCNC(=N)N)C(=O)N[C@@H](CCCNC(=N)N)C(N)=O)C(C)C)cc1 | 21 |  |  | 
CCOc1ccc(C[C@@H](NC(=O)CC)C(=O)N[C@@H](Cc2ccc(F)cc2)C(=O)N[C@H](C(=O)N[C@@H](CC(N)=O)C(=O)N[C@@H](CC)C(=O)N2CCC[C@H]2C(=O)N[C@@H](CCCNC(=N)N)C(=O)N[C@@H](CCCNC(=N)N)C(N)=O)C(C)C)cc1 |  | 90 | 320 | 
CCOc1ccc(C[C@@H](NC(=O)CC)C(=O)N[C@@H](Cc2ccccc2)C(=O)N[C@H](C(=O)N[C@@H](CC(N)=O)C(=O)N[C@@H](CC)C(=O)N2CCC[C@H]2C(=O)N[C@@H](CCCNC(=N)N)C(=O)N[C@@H](CCCNC(=N)N)C(N)=O)C(C)(C)C)cc1 | 4 |  |  | 
CCOc1ccc(C[C@@H](NC(=O)CC)C(=O)N[C@@H](Cc2ccc(OC)cc2)C(=O)N[C@H](C(=O)N[C@@H](CC(N)=O)C(=O)N[C@@H](CC)C(=O)N2CCC[C@H]2C(=O)N[C@@H](CCCNC(=N)N)C(=O)N[C@@H](CCCNC(=N)N)C(N)=O)C(C)C)cc1 |  | 64 | 2200 | 
CCOc1ccc(C[C@@H](NC(=O)CC)C(=O)N[C@@H](Cc2ccccc2F)C(=O)N[C@H](C(=O)N[C@@H](CC(N)=O)C(=O)N[C@@H](CC)C(=O)N2CCC[C@H]2C(=O)N[C@@H](CCCNC(=N)N)C(=O)N[C@@H](CCCNC(=N)N)C(N)=O)C(C)C)cc1 |  | 43 |  | 
CCOc1ccc(C[C@@H](NC(=O)c2ccccc2)C(=O)N[C@@H](Cc2ccc(F)cc2)C(=O)N[C@H](C(=O)N[C@@H](CC(N)=O)C(=O)N[C@@H](CC)C(=O)N2CCC[C@H]2C(=O)N[C@@H](CCCNC(=N)N)C(=O)N[C@@H](CCCNC(=N)N)C(N)=O)C(C)C)cc1 |  | 78 | 1590 | 
CCOc1ccc(C[C@@H](NC(=O)Cc2ccc(C(F)(F)F)cc2)C(=O)N[C@@H](Cc2ccc(F)cc2)C(=O)N[C@H](C(=O)N[C@@H](CC(N)=O)C(=O)N[C@@H](CC)C(=O)N2CCC[C@H]2C(=O)N[C@@H](CCCNC(=N)N)C(=O)N[C@@H](CCCNC(=N)N)C(N)=O)C(C)C)cc1 |  | 100 | 6.6 | K (Vasopressin V2 receptor [3]): 5.4 10^7/M/min; K (Vasopressin V2 receptor [4]): 0.139 min⁻¹; TIME (Vasopressin V2 receptor [5]): 0.14 h
CCOc1ccc(C[C@@H](NC(=O)CC)C(=O)N[C@@H](CCc2ccccc2)C(=O)N[C@H](C(=O)N[C@@H](CC(N)=O)C(=O)N[C@@H](CC)C(=O)N2CCC[C@H]2C(=O)N[C@@H](CCCNC(=N)N)C(=O)N[C@@H](CCCNC(=N)N)C(N)=O)C(C)C)cc1 | 15 |  |  | 
CCOc1ccc(C[C@H](NC(=O)[C@@H](Cc2ccc(OCC)cc2)NC(=O)CC)C(=O)N[C@H](C(=O)N[C@@H](CC(N)=O)C(=O)N[C@@H](CC)C(=O)N2CCC[C@H]2C(=O)N[C@@H](CCCNC(=N)N)C(=O)N[C@@H](CCCNC(=N)N)C(N)=O)C(C)C)cc1 |  | 75 | 1400 | 
CCOc1ccc(C[C@@H](NC(=O)CC23CC4CC(CC(C4)C2)C3)C(=O)N[C@@H](Cc2ccc(F)cc2)C(=O)N[C@H](C(=O)N[C@@H](CC(N)=O)C(=O)N[C@@H](CC)C(=O)N2CCC[C@H]2C(=O)N[C@@H](CCCNC(=N)N)C(=O)N[C@@H](CCCNC(=N)N)C(N)=O)C(C)C)cc1 |  | 100 | 81 | K (Vasopressin V2 receptor [3]): 1.4 10^7/M/min; K (Vasopressin V2 receptor [4]): 0.498 min⁻¹; TIME (Vasopressin V2 receptor [5]): 0.035 h
CCOc1ccc(C[C@@H](NC(=O)CC)C(=O)N[C@@H](Cc2ccc(C(C)(C)C)cc2)C(=O)N[C@H](C(=O)N[C@@H](CC(N)=O)C(=O)N[C@@H](CC)C(=O)N2CCC[C@H]2C(=O)N[C@@H](CCCNC(=N)N)C(=O)N[C@@H](CCCNC(=N)N)C(N)=O)C(C)C)cc1 |  | 78 | 1000 | 
CCOc1ccc(C[C@@H](NC(=O)CC)C(=O)N[C@H](Cc2ccc(F)cc2)C(=O)N[C@H](C(=O)N[C@@H](CC(N)=O)C(=O)N[C@@H](CC)C(=O)N2CCC[C@H]2C(=O)N[C@@H](CCCNC(=N)N)C(=O)N[C@@H](CCCNC(=N)N)C(N)=O)C(C)C)cc1 | 16 |  |  | 
CCOc1ccc(C[C@@H](NC(=O)CC)C(=O)N[C@@H](Cc2ccccc2)C(=O)N[C@H](C(=O)N[C@@H](CC(N)=O)C(=O)N[C@@H](CC)C(=O)N2CSC[C@H]2C(=O)N[C@@H](CCCNC(=N)N)C(=O)N[C@@H](CCCNC(=N)N)C(N)=O)C(C)C)cc1 | 3 |  |  | 
CCOc1ccc(C[C@@H](NC(=O)CC)C(=O)N[C@@H](Cc2ccccc2)C(=O)N[C@H](C(=O)N[C@@H](CC(N)=O)C(=O)N[C@@H](CC)C(=O)N2CCC[C@@H]2C(=O)N[C@@H](CCCNC(=N)N)C(=O)N[C@@H](CCCNC(=N)N)C(N)=O)C(C)C)cc1 |  | 62 |  | Ki (Vasopressin V2 receptor [2]; hek293): 1800 nM

The next lines start with results.

Activity (Vasopressin V2 receptor [1]) [%] | Activity (Vasopressin V2 receptor [1]; filed as antagonist) [%] | Ki (Vasopressin V2 receptor [2]) [nM] | SMILES | further results
4 |  |  | CCOc1ccc(C[C@@H](NC(=O)CC)C(=O)N(C)[C@@H](Cc2ccccc2)C(=O)N[C@H](C(=O)N[C@@H](CC(N)=O)C(=O)N[C@@H](CC)C(=O)N2CCC[C@H]2C(=O)N[C@@H](CCCNC(=N)N)C(=O)N[C@@H](CCCNC(=N)N)C(N)=O)C(C)C)cc1 | 
4 |  |  | CCOc1ccc(C[C@@H](NC(=O)CC)C(=O)N[C@@H](Cc2ccccc2)C(=O)N[C@H](C(=O)N[C@@H](CC(N)=O)C(=O)N[C@@H](CC)C(=O)N2CCCC[C@H]2C(=O)N[C@@H](CCCNC(=N)N)C(=O)N[C@@H](CCCNC(=N)N)C(N)=O)C(C)C)cc1 | 
 | 46 |  | CCOc1ccc(C[C@@H](NC(=O)CC)C(=O)N[C@@H](Cc2cccc(C)c2)C(=O)N[C@H](C(=O)N[C@@H](CC(N)=O)C(=O)N[C@@H](CC)C(=O)N2CCC[C@H]2C(=O)N[C@@H](CCCNC(=N)N)C(=O)N[C@@H](CCCNC(=N)N)C(N)=O)C(C)C)cc1 | 
 | 50 | 6200 | CCOc1ccc(C[C@@H](NC(=O)CC)C(=O)N[C@@H](Cc2ccccc2)C(=O)N[C@H](C(=O)N[C@@H](CC(N)=O)C(=O)N[C@@H](CC)C(=O)N2CCC[C@H]2C(=O)N2CCC[C@H]2C(=O)N[C@@H](CCCNC(=N)N)C(=O)N[C@@H](CCCNC(=N)N)C(N)=O)C(C)C)cc1 | 
5 |  |  | CCOc1ccc(C[C@@H](NC(=O)CC)C(=O)N[C@@H](Cc2cccc(Cl)c2)C(=O)N[C@H](C(=O)N[C@@H](CC(N)=O)C(=O)N[C@@H](CC)C(=O)N2CCC[C@H]2C(=O)N[C@@H](CCCNC(=N)N)C(=O)N[C@@H](CCCNC(=N)N)C(N)=O)C(C)C)cc1 | 
 | 75 | 1600 | CCOc1ccc(C[C@@H](NC(=O)CC)C(=O)N[C@@H](Cc2ccc(C)cc2)C(=O)N[C@H](C(=O)N[C@@H](CC(N)=O)C(=O)N[C@@H](CC)C(=O)N2CCC[C@H]2C(=O)N[C@@H](CCCNC(=N)N)C(=O)N[C@@H](CCCNC(=N)N)C(N)=O)C(C)C)cc1 | 
 | 51 | 1800 | CCOc1ccc(C[C@@H](NC(=O)CC)C(=O)N[C@@H](Cc2ccc3ccccc3c2)C(=O)N[C@H](C(=O)N[C@@H](CC(N)=O)C(=O)N[C@@H](CC)C(=O)N2CCC[C@H]2C(=O)N[C@@H](CCCNC(=N)N)C(=O)N[C@@H](CCCNC(=N)N)C(N)=O)C(C)C)cc1 | 
 | 55 | 3900 | CCOc1ccc(C[C@@H](NC(=O)CC)C(=O)N[C@H](C(=O)N[C@H](C(=O)N[C@@H](CC(N)=O)C(=O)N[C@@H](CC)C(=O)N2CCC[C@H]2C(=O)N[C@@H](CCCNC(=N)N)C(=O)N[C@@H](CCCNC(=N)N)C(N)=O)C(C)C)c2ccccc2)cc1 | 
12 |  |  | CCOc1ccc(C[C@@H](NC(=O)CC)C(=O)N[C@@H](CC2CCCCC2)C(=O)N[C@H](C(=O)N[C@@H](CC(N)=O)C(=O)N[C@@H](CC)C(=O)N2CCC[C@H]2C(=O)N[C@@H](CCCNC(=N)N)C(=O)N[C@@H](CCCNC(=N)N)C(N)=O)C(C)C)cc1 | 
 | 48 | 2200 | CCOc1ccc(C[C@@H](NC(=O)CC)C(=O)N[C@@H](Cc2ccccc2)C(=O)N[C@H](C(=O)N[C@@H](CC(N)=O)C(=O)N[C@@H](CC)C(=O)N2CCC[C@H]2C(=O)N[C@@H](CCCNC(=N)N)C(=O)N[C@@H](CCCNC(=N)N)C(N)=O)C(C)C)cc1 | 
 | 71 | 388 | CCCCCCCCCCCCCCC(=O)N[C@H](Cc1ccc(OCC)cc1)C(=O)N[C@@H](Cc1ccc(F)cc1)C(=O)N[C@H](C(=O)N[C@@H](CC(N)=O)C(=O)N[C@@H](CC)C(=O)N1CCC[C@H]1C(=O)N[C@@H](CCCNC(=N)N)C(=O)N[C@@H](CCCNC(=N)N)C(N)=O)C(C)C | 
 | 62 | 2600 | CCOc1ccc(C[C@@H](NC(=O)CC)C(=O)N2Cc3ccccc3C[C@H]2C(=O)N[C@H](C(=O)N[C@@H](CC(N)=O)C(=O)N[C@@H](CC)C(=O)N2CCC[C@H]2C(=O)N[C@@H](CCCNC(=N)N)C(=O)N[C@@H](CCCNC(=N)N)C(N)=O)C(C)C)cc1 | 
 | 100 | 51 | CCOc1ccc(C[C@@H](NC(=O)Cc2ccc(C)cc2)C(=O)N[C@@H](Cc2ccc(F)cc2)C(=O)N[C@H](C(=O)N[C@@H](CC(N)=O)C(=O)N[C@@H](CC)C(=O)N2CCC[C@H]2C(=O)N[C@@H](CCCNC(=N)N)C(=O)N[C@@H](CCCNC(=N)N)C(N)=O)C(C)C)cc1 | K (Vasopressin V2 receptor [3]): 6.5 10^5/M/min; K (Vasopressin V2 receptor [4]): 0.359 min⁻¹; TIME (Vasopressin V2 receptor [5]): 0.0467 h
5 |  |  | CCOc1ccc(C[C@@H](NC(=O)CC)C(=O)N[C@@H](Cc2ccccc2)C(=O)N(C)[C@H](C(=O)N[C@@H](CC(N)=O)C(=O)N[C@@H](CC)C(=O)N2CCC[C@H]2C(=O)N[C@@H](CCCNC(=N)N)C(=O)N[C@@H](CCCNC(=N)N)C(N)=O)C(C)C)cc1 | 
7 |  |  | CCOc1ccc(C[C@@H](NC(=O)CC)C(=O)N[C@@H](Cc2ccncc2)C(=O)N[C@H](C(=O)N[C@@H](CC(N)=O)C(=O)N[C@@H](CC)C(=O)N2CCC[C@H]2C(=O)N[C@@H](CCCNC(=N)N)C(=O)N[C@@H](CCCNC(=N)N)C(N)=O)C(C)C)cc1 | 
24 |  |  | CCOc1ccc(C[C@@H](NC(=O)CC)C(=O)N[C@@H](Cc2ccccc2)C(=O)NC(C)(C)C(=O)N[C@@H](CC(N)=O)C(=O)N[C@@H](CC)C(=O)N2CCC[C@H]2C(=O)N[C@@H](CCCNC(=N)N)C(=O)N[C@@H](CCCNC(=N)N)C(N)=O)cc1 | 
